Active and inactive are the calls of the source. No cut-off for these calls is given here.
Legend:
[1] = Cytotoxicity against mouse GL26 cells assessed as inhibition of cell growth incubated for 48 hrs by MTT assay; format: functional, cell-based; details: GL26, 48 h
[2] = tested on: GL26; assay: Induction of apoptosis in mouse GL26 cells assessed as proteolytic cleavage of PARP1 incubated for 48 hrs by Western blot analysis; format: functional, cell-based; details: dose 1.25-5 µM, DDE = dose-dependent effect
[3] = Toxicity in mouse bearing intracranial tumor assessed as median survival time at 50 mg/kg, ip for 10 days (Rvb= 13.8 days); format: organism-based; details: in vivo, 240 h, time 10 day
[4] = Toxicity in mouse bearing intracranial tumor assessed as last day of survival at 25 mg/kg, ip in presence of clorgyline for 10 days (Rvb=16 days); format: organism-based; details: in vivo, 240 h, time 10 day
[5] = Toxicity in mouse bearing intracranial tumor assessed as last day of survival at 50 mg/kg, ip in presence of clorgyline for 10 days (Rvb=16 days); format: organism-based; details: in vivo, 240 h, time 10 day
[6] = Toxicity in mouse bearing intracranial tumor assessed as median survival time at 25 mg/kg, ip in presence of clorgyline for 10 days (Rvb=13.8 days); format: organism-based; details: in vivo, 240 h, time 10 day
[7] = Toxicity in mouse bearing intracranial tumor assessed as median survival time at 50 mg/kg, ip in presence of clorgyline for 10 days (Rvb=13.8 days); format: organism-based; details: in vivo, 240 h, time 10 day
[8] = biological target: T1, Amine oxidase [flavin-containing] A (Homo sapiens, UniProt P21397); assay: Inhibition of MAO-A (unknown origin) expressed in mouse GL26 cells using 14C 5-hydroxytryptamine as substrate pre-incubated for 20 mins followed by substrate addition measured after 20 mins by liquid scintillation spectroscopy; format: cell-based
T1 sequence (P21397 whole entry): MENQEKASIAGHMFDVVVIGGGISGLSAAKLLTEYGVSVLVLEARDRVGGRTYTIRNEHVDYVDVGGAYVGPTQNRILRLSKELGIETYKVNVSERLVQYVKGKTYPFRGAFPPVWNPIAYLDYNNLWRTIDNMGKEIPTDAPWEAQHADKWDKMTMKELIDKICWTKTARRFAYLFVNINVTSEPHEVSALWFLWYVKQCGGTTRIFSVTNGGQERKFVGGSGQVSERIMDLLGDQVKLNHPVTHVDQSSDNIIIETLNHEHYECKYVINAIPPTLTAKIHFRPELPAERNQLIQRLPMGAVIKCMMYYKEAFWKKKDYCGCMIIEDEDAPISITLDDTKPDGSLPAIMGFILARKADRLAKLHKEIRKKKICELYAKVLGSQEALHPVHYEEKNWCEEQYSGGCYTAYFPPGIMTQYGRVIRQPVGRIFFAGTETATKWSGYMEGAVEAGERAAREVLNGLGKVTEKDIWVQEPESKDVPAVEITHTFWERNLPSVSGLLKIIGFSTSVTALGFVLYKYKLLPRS

[9] = biological target: Histone deacetylase 1 (Homo sapiens, UniProt Q13547); assay: Inhibition of human HDAC1 (379 to 382 residues) using RHKKAc-AMC fluorogenic peptide as substrate by fluorescence assay
[10] = biological target: Histone deacetylase 2 (Homo sapiens, UniProt Q92769); assay: Inhibition of human HDAC2 (379 to 382 residues) using RHKKAc-AMC fluorogenic peptide as substrate by fluorescence assay
[11] = biological target: T2, Protein deacetylase HDAC6 (Homo sapiens, UniProt Q9UBN7); assay: Inhibition of human HDAC6 (379 to 382 residues) using RHKKAc fluorogenic peptide as substrate by fluorescence assay
T2 sequence (Q9UBN7 whole entry): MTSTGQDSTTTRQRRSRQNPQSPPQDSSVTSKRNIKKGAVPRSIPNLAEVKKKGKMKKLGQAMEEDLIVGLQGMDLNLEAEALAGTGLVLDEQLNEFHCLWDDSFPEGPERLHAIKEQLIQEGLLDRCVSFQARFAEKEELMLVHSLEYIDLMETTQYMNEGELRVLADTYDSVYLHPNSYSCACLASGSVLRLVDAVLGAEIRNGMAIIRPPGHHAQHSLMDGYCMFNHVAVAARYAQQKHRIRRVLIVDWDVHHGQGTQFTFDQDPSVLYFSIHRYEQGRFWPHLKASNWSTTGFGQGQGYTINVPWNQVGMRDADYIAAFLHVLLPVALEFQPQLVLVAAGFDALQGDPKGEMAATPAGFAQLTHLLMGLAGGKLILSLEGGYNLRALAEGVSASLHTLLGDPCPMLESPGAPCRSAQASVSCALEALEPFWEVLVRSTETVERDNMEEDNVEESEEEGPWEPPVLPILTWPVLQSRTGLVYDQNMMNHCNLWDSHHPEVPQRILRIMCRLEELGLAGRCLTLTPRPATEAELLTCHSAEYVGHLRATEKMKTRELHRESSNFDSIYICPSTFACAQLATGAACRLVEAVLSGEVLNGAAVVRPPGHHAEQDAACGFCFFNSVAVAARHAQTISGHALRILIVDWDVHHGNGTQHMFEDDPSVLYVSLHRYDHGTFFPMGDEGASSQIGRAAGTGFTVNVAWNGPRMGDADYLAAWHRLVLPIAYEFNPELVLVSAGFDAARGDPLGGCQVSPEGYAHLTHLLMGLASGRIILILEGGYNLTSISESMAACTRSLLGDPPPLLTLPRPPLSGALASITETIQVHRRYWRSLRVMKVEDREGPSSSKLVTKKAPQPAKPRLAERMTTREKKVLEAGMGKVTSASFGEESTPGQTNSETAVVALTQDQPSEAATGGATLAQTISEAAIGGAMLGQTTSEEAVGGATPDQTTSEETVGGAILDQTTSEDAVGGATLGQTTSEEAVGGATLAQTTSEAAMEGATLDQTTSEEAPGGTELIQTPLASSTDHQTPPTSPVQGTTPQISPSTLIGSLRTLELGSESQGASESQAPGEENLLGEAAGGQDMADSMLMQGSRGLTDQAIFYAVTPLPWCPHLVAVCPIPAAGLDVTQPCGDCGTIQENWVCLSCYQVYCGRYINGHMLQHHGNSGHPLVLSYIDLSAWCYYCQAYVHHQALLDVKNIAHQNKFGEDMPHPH

[12] = biological target: T3, Histone deacetylase 8 (Homo sapiens, UniProt Q9BY41); assay: Inhibition of human HDAC8 (379 to 382 residues) using RHKKAcKAc-AMC fluorogenic peptide as substrate by fluorescence assay
T3 sequence (Q9BY41 whole entry): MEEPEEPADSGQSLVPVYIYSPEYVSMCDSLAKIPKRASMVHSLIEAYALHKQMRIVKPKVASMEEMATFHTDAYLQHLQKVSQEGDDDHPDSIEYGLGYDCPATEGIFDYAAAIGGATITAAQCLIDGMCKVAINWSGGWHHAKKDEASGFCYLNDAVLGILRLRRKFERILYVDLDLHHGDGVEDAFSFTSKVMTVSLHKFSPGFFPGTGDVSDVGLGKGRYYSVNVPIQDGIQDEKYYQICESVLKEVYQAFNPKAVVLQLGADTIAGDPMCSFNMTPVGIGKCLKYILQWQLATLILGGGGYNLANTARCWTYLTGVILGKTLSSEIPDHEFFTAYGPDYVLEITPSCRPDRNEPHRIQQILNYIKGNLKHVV

[13] = tested on: U-251; assay: cells; format: functional, cell-based; details: Homo sapiens, U-251, 48 h
Description: Cytotoxicity against human TMZ-sensitive U251 cells assessed as inhibition of cell growth incubated for 48 hrs by MTT assay

[14] = tested on: U-251; assay: cells; format: functional, cell-based; details: Homo sapiens, U-251, 48 h; remark: listed apart in the source
Description: Cytotoxicity against human TMZ-resistant U251 cells assessed as inhibition of cell growth incubated for 48 hrs by MTT assay

[15] = tested on: U-251; assay: Cytotoxicity against human U251 cells assessed as inhibition of cell growth incubated for 48 hrs by MTT assay; format: functional, cell-based; details: DDE = dose-dependent effect
[16] = biological target: Lysine-specific histone demethylase 1A (Homo sapiens, UniProt O60341); assay: Inhibition of human LSD1 assessed as demethylase activity of LSD1 using Histone H3(1-21)K4me2 peptide as substrate incubated for 30 mins followed by substrate addition by amplex red dye based HRP-coupled assay
[17] = tested on: Mus musculus; assay: In vivo inhibition of MAO-A in C57BL6 mouse xenografted with mouse GL26 cells as decrease in MAO activity in brain at 50 mg/kg, ip by radiometric analysis; format: functional, organism-based
[18] = tested on: GL26; assay: Antitumor activity against mouse GL26 cells implanted in C57BL6 mouse assessed as reduction in tumor size at 50 mg/kg, ip daily measured for 10 days by bioluminescence assay; format: functional, organism-based; details: time 10.0 day
[19] = Toxicity in C57BL6 mouse xenografted with mouse GL26 cells as assessed as last day of survival at 50 mg/kg, ip for 14 days treatment started at 5 days post-infection (Rvb=14 days); format: organism-based; details: in vivo, 336 h, time 14 day
[20] = (§1) In vivo inhibition of MAO-A in mouse xenografted with mouse GL26 assessed as decrease in MAO activity in tumor at 50 mg/kg by radiometric analysis; format: functional; set-up: scale not given: the % may be the effect or the level left
[21] = tested on: Mus musculus; assay: In vivo inhibition of MAO-A in mouse xenografted with mouse GL26 assessed as decrease in MAO activity in brain at 25 mg/kg, ip administered for 10 days by bioluminescence assay; format: functional, organism-based; details: time 10.0 day
[22] = tested on: Mus musculus; assay: In vivo inhibition of MAO-A in mouse xenografted with mouse GL26 assessed as decrease in MAO activity in tumor at 25 mg/kg, ip administered for 10 days by bioluminescence assay; format: functional, organism-based; details: time 10.0 day
[23] = Toxicity in mouse bearing intracranial tumor assessed as last day of survival at 50 mg/kg,ip for 10 days (Rvb=16 days); format: organism-based; details: in vivo, 240 h, time 10 day
[24] = Toxicity in mouse bearing intracranial tumor assessed as assessed as median survival time at 50 mg/kg, ip for 14 days treatment started at 5 days post-infection (Rvb=12.8 days); format: organism-based; details: in vivo, 336 h, time 14 day
[25] = Toxicity in mouse bearing intracranial tumor assessed as assessed as median survival time at 25 mg/kg, ip treatment started at 7 dpi (Rvb=18.25 days); format: organism-based; details: in vivo, 438 h
[26] = Toxicity in mouse bearing intracranial tumor assessed as last day of survival at 25 mg/kg, ip treatment started at 7 dpi (Rvb=19 days); format: organism-based; details: in vivo, 456 h
[27] = tested on: Mus musculus; assay: as §1; format: functional

Sequence of Histone deacetylase 2 (Q92769 whole entry, the tested form may be a part): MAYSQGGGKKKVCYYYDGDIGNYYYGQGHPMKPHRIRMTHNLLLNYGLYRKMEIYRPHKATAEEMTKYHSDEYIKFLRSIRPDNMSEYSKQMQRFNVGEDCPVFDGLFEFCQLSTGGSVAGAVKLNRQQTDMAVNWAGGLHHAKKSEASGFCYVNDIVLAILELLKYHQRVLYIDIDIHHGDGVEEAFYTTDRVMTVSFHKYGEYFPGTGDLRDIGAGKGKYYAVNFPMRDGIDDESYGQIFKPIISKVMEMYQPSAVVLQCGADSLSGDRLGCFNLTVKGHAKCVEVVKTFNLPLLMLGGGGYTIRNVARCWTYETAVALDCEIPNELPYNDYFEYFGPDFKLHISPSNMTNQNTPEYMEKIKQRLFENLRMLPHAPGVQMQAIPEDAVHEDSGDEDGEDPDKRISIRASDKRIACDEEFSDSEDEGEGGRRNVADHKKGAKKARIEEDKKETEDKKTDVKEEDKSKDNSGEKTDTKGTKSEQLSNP
Sequence of Histone deacetylase 1 (Q13547 whole entry, the tested form may be a part): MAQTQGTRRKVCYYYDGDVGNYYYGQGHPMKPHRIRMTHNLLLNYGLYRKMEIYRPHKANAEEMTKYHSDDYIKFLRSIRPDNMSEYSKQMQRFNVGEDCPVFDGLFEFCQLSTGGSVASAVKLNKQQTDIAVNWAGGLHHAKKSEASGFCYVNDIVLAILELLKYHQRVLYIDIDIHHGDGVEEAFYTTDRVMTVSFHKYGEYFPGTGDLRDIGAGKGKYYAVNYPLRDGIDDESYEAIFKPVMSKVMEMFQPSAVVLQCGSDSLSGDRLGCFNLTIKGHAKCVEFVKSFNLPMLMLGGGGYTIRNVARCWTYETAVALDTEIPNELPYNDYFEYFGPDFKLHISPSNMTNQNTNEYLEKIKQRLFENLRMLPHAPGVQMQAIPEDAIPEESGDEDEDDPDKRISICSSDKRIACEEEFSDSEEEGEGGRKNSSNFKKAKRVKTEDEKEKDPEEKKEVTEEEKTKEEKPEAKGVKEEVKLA

O=C(CCCCCCC(=O)Nc1ccccc1)NO [VORINOSTAT]
IC50 [1]: 2.2 µM | Activity [2]: Dde | Survival [3]: 13.8 days | Survival [4]: 14 days | Survival [5]: 18 days | MST [6]: 13.8 days | MST [7]: 14.4 days

C#CCN(C)CCCOc1cc(NC(=O)CCCCCCC(=O)NO)c(Cl)cc1Cl
IC50 [1]: 74 µM | IC50 [8]: 0.43 µM | IC50 [9]: 3.29 µM | IC50 [10]: 6.68 µM | IC50 [11]: 0.06 µM | IC50 [12]: 1.78 µM | IC50 [13]: 50.6 µM | IC50 [14]: 8.67 µM

C#CCN(C)CCCOc1cc(NC(=O)CCCCCCCC(=O)NO)ccc1Cl
IC50 [1]: 19.3 µM | IC50 [8]: 0.02 µM | IC50 [9]: 2.31 µM | IC50 [10]: 4.18 µM | IC50 [11]: 0.08 µM | IC50 [12]: 1.12 µM | IC50 [13]: 11.5 µM | IC50 [14]: 4.78 µM

C#CCN(C)CCCOc1cc(NCc2ccc(C(=O)NO)cc2)ccc1Cl
IC50 [1]: 2.41 µM | Activity [15]: Dde | IC50 [8]: 0.0004 µM | IC50 [9]: 2.51 µM | IC50 [10]: 4.75 µM | IC50 [11]: 0.01 µM | IC50 [12]: 1.17 µM | EC50 [16]: 6 µM | IC50 [13]: 10.1 µM | IC50 [14]: 7.12 µM | Activity [17]: Active | Activity [18]: Active | Survival [19]: 18 days | Activity [20]: 90% | Activity [21]: Active | Activity [22]: Active | Survival [3]: 16.8 days | Survival [23]: 20 days | MST [24]: 14.25 days | MST [25]: 19.75 days | Survival [26]: 23 days

C#CCN(C)CCCOc1cccc(NC(=O)CCCCCCC(=O)NO)c1Cl
IC50 [1]: 1.74 µM | IC50 [8]: 23.3 µM | IC50 [9]: 0.89 µM | IC50 [10]: 3.21 µM | IC50 [11]: 0.09 µM | IC50 [12]: 1.47 µM | IC50 [13]: 5.82 µM | IC50 [14]: 4.09 µM

C#CCN(C)CCCOc1cc(NC(=O)CCCCCCCCC(=O)NO)ccc1Cl
IC50 [1]: 1.04 µM | IC50 [8]: < 0.0001 µM | IC50 [9]: 1.42 µM | IC50 [10]: 3.63 µM | IC50 [11]: 0.16 µM | IC50 [12]: 2.48 µM | IC50 [13]: 33.2 µM | IC50 [14]: 16.2 µM | Activity [17]: Active | Activity [18]: Active | Survival [19]: 16 days | Activity [27]: Active | Activity [21]: Active | Activity [22]: Active | Survival [3]: 14.8 days | MST [24]: 14.5 days | MST [25]: 18 days | Survival [26]: 21 days

C#CCN(C)CCCOc1cc(NC(=O)CCCCCCC(=O)NO)ccc1Cl
IC50 [1]: 1.15 µM | IC50 [8]: 3.25 µM | IC50 [9]: 0.03 µM | IC50 [10]: 0.15 µM | IC50 [11]: 0.01 µM | IC50 [12]: 0.05 µM | IC50 [13]: 0.12 µM | IC50 [14]: 0.6 µM
